From publication PMC10108010, “Fluorogenic Granzyme A Substrates Enable Real‐Time Imaging of Adaptive Immune Cell Activity” (Angewandte Chemie (International Ed. in English), 2023)
Where a SMILES comes first, the peptide text is derived from it. The star is where a group is joined. NH(4-Me-phenyl) = Cc1ccc(N*)cc1; AMC = Cc1cc(=O)oc2cc(N*)ccc12; Cbz = O=C(OCc1ccccc1)*; X1 = Cc1ccc(S*)cc1; X2 = Cc1ccc(O*)cc1

Columns and labels:
[1] = Chemical stability in aqueous buffers by HPLC-MS (no enzyme); format: physicochemical; conditions: for chemical stability at other pH (in words): basic and acid media
Protocol: Figure 2 Solid‐phase peptide synthesis (SPPS) of the sequence Ac‐IGNR‐OH (compound 1) and corresponding analogues containing spacers with different connectivities. The synthesis of compounds 1–4 is described in the Supporting Information. […] TEXT PRINTED IN THE PICTURE: 2 (ester): pH 4: < 5%; pH 7: < 5%; pH 10: < 5% | 3 (thioester): pH 4: 70%; pH 7: < 5%; pH 10: < 5% | 4 (amide): pH 4: > 95%; pH 7: > 95%; pH 10: > 95%
First, we synthesized a large batch (>400 mg) of Ac‐IGNR‐OH using standard protocols for the solid‐phase synthesis of fluorescent peptides[20] in polystyrene resin derivatized with a 2‐chlorotritylchloride linker (PS‐CTC). Next, we coupled the tetrapeptide Ac‐IGNR‐OH (compound 1, Figure 2) to different aryl groups to generate the isosteric ester, thioester and amide analogues (compounds 2, 3 and 4 respectively, Figure 2). After isolation of all compounds by semi‐preparative HPLC with purities >95 %, we analyzed their chemical stability in aqueous media in the absence of hGzmA. […] We also tested their chemical integrity at different pH values because GzmA can be stored in slightly acidic cytotoxic granules inside CTLs.[21]

hGzmA = target: T1, hGzmA (Homo sapiens, UniProt P12544); experiment: Inhibition by 3,4-dichloroisocoumarin of the fluorescence of compound 9 with hGzmA; format: biochemical; conditions: 3,4-dichloroisocoumarin 100 μM, compound 9 20 μM, hGzmA 20 nM, Tris buffer (pH 8)
T1 construct: in the absence or presence of active recombinant hGzmA
T1 sequence (P12544 29-262): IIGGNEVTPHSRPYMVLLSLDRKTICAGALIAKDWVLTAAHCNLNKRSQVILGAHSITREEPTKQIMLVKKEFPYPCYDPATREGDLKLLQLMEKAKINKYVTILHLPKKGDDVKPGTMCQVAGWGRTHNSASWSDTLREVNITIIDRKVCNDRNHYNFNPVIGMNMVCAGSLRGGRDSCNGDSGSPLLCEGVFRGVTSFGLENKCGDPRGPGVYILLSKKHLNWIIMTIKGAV

NK-92 cells = experiment: Live-cell confocal microscopy of NK-92 cells; format: cell-based, human; conditions: 3,4-dichloroisocoumarin 5 μM, 2 h prior to labeling with compound 9 (5 μM, 1 h)
Protocol: Figure S9. Brightfield and fluorescence confocal microscopy merged images of live NK-92 cells upon incubation with compound 9. Representative microscopy images from 3 independent experiments of live NK-92 cells upon incubation with […]
dichloroisocoumarin (5 µM) was used as a GzmA inhibitor for 2 h prior to labeling.
(§1) 5.0) prior to the enzyme assays.
(§2) All the tubes were incubated
(§3) NK- 92 cell inhibition and imaging. […]
(§4) Microsystems) and qualitatively analysed using Fiji.

[2] = test system: active GzmA secreted by NK-92 cells; experiment: Detection of active GzmA in supernatants of stimulated NK-92 cells; format: cell-based, human; conditions: supernatants of stimulated NK-92 cells + compound 9
Source text: Encouraged by the high reactivity of compound 9, we evaluated its potential application to detect active GzmA secreted by immune cells. NK cell‐based therapies are regarded as potential anticancer treatments due to their ability to secrete granzymes to the extracellular space and cause cytotoxicity in cancer cells.[24] […] To test the utility of compound 9 to measure active GzmA in cell supernatants, we performed degranulation assays in human NK‐92 cells (e.g., a patient‐derived cell line that expresses higher levels of GzmA than healthy NK cells)[25] and also tested GzmA‐negative cells (e.g., HaCaT keratinocytes, Figure S8). NK‐92 cells were stimulated with […] and ionomycin (Figure 5).[26] Cell supernatants were collected and incubated with compound 9 for 1 h, followed by spectroscopic measurements. […] Previous reports indicate that granzyme activity can be detected inside NK‐92 cells[[11b]] and that granzymes can be found within activated immune cells due to intracellular granular leakage,[27] even though granzyme activity is known to be reduced in acidic granules. To study this observation, we performed Z‐stack live‐cell confocal microscopy in NK‐92 cells after incubation with compound 9.
as §1, §2, §3, §4

[3] = Emission wavelength / spectral properties; format: physicochemical; conditions: comparison of compound 9 and Z-FR-AMC
[4] = Tris buffer (pH 7.4), absence of hGzmA, HPLC-MS
[5] = pH 4, aqueous buffer, 2 h at 37 °C, HPLC-MS
[6] = pH 7, aqueous buffer, 2 h at 37 °C, HPLC-MS
[7] = pH 10, aqueous buffer, 2 h at 37 °C, HPLC-MS

chemical stability (in words) [1, 4] | stability (% by HPLC-MS) [1, 6] | stability (% by HPLC-MS) [1, 7] | Compound | stability (% by HPLC-MS) [1, 5] | chemical stability at other pH (in words) ([1]; HPLC-MS, 2 h at 37 °C) | also measured
completely hydrolyzed | < 5% | < 5% | CC[C@H](C)[C@H](NC(C)=O)C(=O)NCC(=O)N[C@@H](CC(N)=O)C(=O)N[C@@H](CCCNC(=N)N)C(=O)Oc1ccc(C)cc1 [compound 2] (Ac-IGNR-X2) | < 5% |  | 
 |  |  | O=c1oc(Cl)c(Cl)c2ccccc12 [3,4‐dichloroisocoumarin] |  |  | decrease of the fluorescence signal (hGzmA): > 90%; effect of inhibitor on intracellular fluorescence (in words) (NK-92 cells): reduced; effect of inhibitor on supernatant fluorescence (in words) [2]: blocked
completely hydrolyzed | < 5% | < 5% | CC[C@H](C)[C@H](NC(C)=O)C(=O)NCC(=O)N[C@@H](CC(N)=O)C(=O)N[C@@H](CCCNC(=N)N)C(=O)Sc1ccc(C)cc1 [compound 3] (Ac-IGNR-X1) |  | more stable than the carboxylic ester analogue 2 at acidic pH | remaining at 2 h [1, 5]: 70%
 |  |  | Cbz-Phe-Arg-{AMC} |  |  | emission wavelength [3]: 445 nm

Compound | chemical stability (in words) [1, 4] | stability (% by HPLC-MS) [1, 6] | stability (% by HPLC-MS) [1, 7] | stability (% by HPLC-MS) [1, 5] | chemical stability at other pH (in words) ([1]; HPLC-MS, 2 h at 37 °C) | also measured
CC[C@H](C)[C@H](NC(C)=O)C(=O)NCC(=O)N[C@@H](CC(N)=O)C(=O)N[C@@H](CCCNC(=N)N)C(=O)Nc1ccc(C)cc1 [compound 4] (Ac-IGNR-{NH(4-Me-phenyl)}) | fully stable | > 95% | > 95% | > 95% | stable in basic and acid media | purity after incubation ([1]; Tris buffer (pH 7.4), absence of hGzmA): > 95%
